Results published in patent publication US7511123B2, “Immuno-interactive fragments of the alpha-C subunit of inhibin” (Prince Henry's Institute of Medical Research, priority 1999, dated 2009).

Columns and labels:
As #41 = assay: RIA (Assay 2): competition with iodinated inhibin for As #41; format: binding, sheep; conditions: biotinylated peptides; 50% fall in binding of iodinated inhibin
Description: (§1) This assay was used to determine which peptides compete with iodinated 30 kDa inhibin for As #41, #128 and #1989 (used in the original inhibin RIA, Lapphorn et al., 1989, supra) in a RIA format. This assay identifies those peptides that bind to inhibin-binding antibodies in the antiserum and provides a stricter affinity and specificity assessment in identifying the appropriate epitopes than that found with Assay 1. The competition between peptide and hr-inhibin (used as the standard) was assessed from their ED50 values. The RIA consisted of the competition of iodinated inhibin and either hr-inhibin reference preparation, individual peptides or pools from the 4 peptide regions, with As #41, #128 and in some instances, As #1989. The peptides/inhibin/iodinated inhibin and antisera (at a prescribed dilution) were incubated overnight at 4° C. using standard methodologies. The antibody-bound iodinated inhibin was immunoprecipitated with the addition of an anti-sheep IgG serum raised in goats and the radioactivity was measured in a gamma counter. The concentration of peptide that gives a 50% fall in binding of iodinated inhibin (ED50) was determined and this value was used to give a measure of the affinity of the peptide for the antiserum. This methodology consisted of determining the ED50 of the peptide in the RIA using iodinated human recombinant inhibin as tracer with either As #41, As #128 or As #1989 and graded doses of either hr-inhibin or peptide as described in Example 2.

PO-14 [1] = assay: RIA of Set 2 peptides with PO-14; format: binding, mouse; conditions: Set 2 biotinylated peptides 0.8 and 0.08 micromoles/L
Description: (§2) The binding of the 41 biotinylated peptides as set forth in Table 7 (peptide set 2) to the mouse monoclonal antibodies (PO# series) was assessed as follows: b) Assay 2 (radioimrnunoassay, RIA) using iodinated human inhibin A as tracer. Mabs (at an appropriate dilution, see above) were incubated with iodinated human recombinant inhibin in the presence of biotinylated peptides (0.8 and 0.08 micromoles/L final concentration) overnight at room temperature.

PO-14 [2] = assay: Solid phase binding of Set 2 peptides to PO-14; design: species or system mouse; key: +++; ΦΦΦ strong effect; +, Φ weak effect; conditions: Set 2 biotinylated peptides 24 micromoles/L
Description: (§3) The binding of the 41 biotinylated peptides as set forth in Table 7 (peptide set 2) to the mouse monoclonal antibodies (PO# series) was assessed as follows:
(§4) a) Assay 1 (solid phase assay). The assay was undertaken as outlined in assay 1 of Example 2. Biotinylated peptides (24 micromoles/L) were initially bound to streptavidin-coated plates. Mab (at an appropriate dilution to give a detectable response, 1:1000, 1:10000 dilution of the culture medium) was then added and incubated for 1.5 hr. The amount of bound Mab was determined using horseradish peroxidase-bound anti-mouse IgG serum and enzyme activity detected at 450-630 nm using an ELISA plate reader.

As #128 [3] = assay: RIA (Assay 2): competition with iodinated inhibin for As #128; format: binding, sheep; conditions: biotinylated peptides; 50% fall in binding of iodinated inhibin
Description: as §1

PO-12 [4] = assay: RIA of Set 2 peptides with PO-12; format: binding, mouse; design: key: +++; ΦΦΦ strong effect; +, Φ weak effect; conditions: Set 2 biotinylated peptides 0.8 and 0.08 micromoles/L
Description: as §2

As #1989 = assay: RIA (Assay 2): competition with iodinated inhibin for As #1989; format: binding, rabbit; conditions: biotinylated peptides; 50% fall in binding of iodinated inhibin
Description: as §1

R1 = assay: RIA of Set 2 peptides with R1; format: binding, mouse; design: key: +++; ΦΦΦ strong effect; +, Φ weak effect; conditions: Set 2 biotinylated peptides 0.8 and 0.08 micromoles/L
Description: as §2

As #128 [5] = assay: Solid phase assay (Assay 1): biotinylated peptides binding to As #128; design: species or system sheep; key: +++++ major contribution; + minor contribution; conditions: relative contribution
Description: This assay is a broad screen of the binding of the 31 biotinylated peptides to As #41 and #128 as recommended by Chiron Mimotopes.
The biotinylated peptides were initially bound to streptavidin-coated 96-well plates (2 hours at room temperature), antiserum #41 or #128 was then added (2 hours room temperature) to bind to the peptides. Detection of antiserum binding was assessed by a further incubation with an anti-ovine IgG serum labeled with the enzyme, horseradish peroxidase. The enzyme activity was assessed by conversion of a colorless substrate to a colored product that is detected in a spectrophotometer. The enzyme activity measured was proportional to the extent of the binding of the peptides.

As #128 [6] = assay: Competitive 2-site assay (Assay 3), approach (a); format: binding, sheep; design: key: +++++ major contribution; + minor contribution; conditions: relative contribution
Description: This assay was developed to establish the relative importance of the individual peptides and peptide pools (identified as epitopes in Assays 1 and 2) in the sandwich antibody format used in the IFMA with As #128 as capture antibody and As #41 as detection antibody. Two approaches (a and b) were considered, Approach (a) explores the cross-reaction of peptides with inhibin for the immobilized As #128 while Approach (b) assesses their cross-reaction with inhibin for As #41.
Approach (a). The biotinylated peptide pools and/or individual peptides at various concentrations, in combination with a fixed concentration of hr-inhibin, were incubated for 2 hours with As #128-coated plates. The plates were then washed to remove any unbound material. Iodinated As #41 was then added to bind to the bound hr-inhibin, the plates washed and the bound radioactivity was measured in a gamma counter. The counts measured were proportional to the amount of hr-inhibin bound to both antisera. The possibility that a peptide contained two epitopes capable of linking As #128 and #41 was assessed in the absence of added hr-inhibin.

PO-12 [7] = assay: Solid phase binding of Set 2 peptides to PO-12; design: species or system mouse; key: +++; ΦΦΦ strong effect; +, Φ weak effect; conditions: Set 2 biotinylated peptides 24 micromoles/L
Description: as §3, §4

PO-14 [8] = assay: RIA of Set 2 peptides with PO-14; format: binding, mouse; design: key: +++; ΦΦΦ strong effect; +, Φ weak effect; conditions: Set 2 biotinylated peptides 0.8 and 0.08 micromoles/L
Description: as §2

Row | Substance | As#41 ED50 (As #41) | PO-14 RIA (PO-14 [1]) | PO-14 SPB (PO-14 [2]) | As#128 ED50 (As #128 [3]) | PO-12 RIA (PO-12 [4]) | As#1989 ED50 (As #1989) | R1 RIA (R1) | #128 Antibody screen Assay 1 (As #128 [5]) | #128 2-site competitive assay Assay 3 (As #128 [6]) | PO-12 SPB (PO-12 [7]) | PO-14 RIA (PO-14 [8])
1 | SGSG AALPGTMRPLHVRT [Peptide 27] | 5000 nM | ΦΦ | +++ | 2000 nM | Φ | >2500 nM |  |  |  |  | 
2 | SGSG ALRLLQRPPEEPAA [Peptide 6] | 26 nM |  |  | 1800 nM |  | >2500 nM | Φ | + | + |  | 
3 | SGSG GAPPTPAQPYSLLP [Peptide 22] | 5000 nM |  | +++ | 156 nM | Φ | >2500 nM |  |  |  | +++ | Φ
